Several values for one entry are separate records, joined by “and”; a condition that tells them apart may be missing. Identical values can stand only once. Entries after “also recorded” stand apart in the source; their conditions may differ.
What was measured:
Japanese mustard spinach [1] = test: Verification experiment 2: high temperature and low sunshine stress, hydroponics (second time-B)
Japanese mustard spinach [2] = test: Verification experiment 1: high temperature stress, hydroponics (first time); format: in vivo; conditions: for effect as agent compared with zerumbone: high temperature stress, hydroponics
Experimental: In order to confirm that the above substances have an efficacy such as alleviation of the various stresses on a plant or promotion of plant growth, some verification experiments were conducted. In each of the verification experiments, solutions of the above substances were used. A concentration thereof was in a range from 0.01 ppm to 10 ppm, in order to exert a sufficient efficacy on a plant. This concentration was appropriately adjusted for each verification experiment. For comparison, similar verification experiments using sanguinarine were conducted. In such a verification experiment for an identical purpose to the above, a concentration of sanguinarine was set to be identical to those of the above substances. A verification experiment for high temperature stress was conducted by use of Japanese mustard spinach. The experiment was conducted in the following procedures. […] Note that the agent used was zerumbone.

Japanese mustard spinach [3] = test: Verification experiment 2: high temperature stress, hydroponics, plenty of sunlight (second time-A)
cucumber [4] = test: Verification experiment 6: dry stress; format: in vivo; conditions: for Weight of each seedling: 3 ml agent added immediately after germination, 18 days cultivation, soil surface kept dry, samples No. 1-9; for Average: average seedling weight after 18 days dry stress; for Weight comparison (%): control = 100.0
Experimental: By use of cucumber, a resistance to dry stress was investigated. 3 ml of Zerumbone was added to cucumber seedlings immediately after germination. The cucumber seedlings were cultivated for 18 days. Meanwhile, another cucumber seedlings were cultivated for 18 days without Zerumbone added thereto. Throughout the cultivation period, a minimum amount of water was given and watering was conducted a minimum number of times so that the soil surface was always kept dry. […] A weight of each of the seedlings was measured. […] Note that, except for the agent, the cultivation conditions used were identical to those of the case where zerumbone was used.

cucumber [5] = test: Verification experiment 9: organic acid stress, TTC test; format: in vivo; conditions: cut leaves immersed in 0.4% acetic acid solution for two hours
leaf lettuce = test: Verification experiment 13: hydroponics test on leaf lettuce in vinyl greenhouse in summer; format: in vivo
racomitrium moss [6] = test: Verification experiment 18: organic acid stress, Bryophyta, TTC test; format: in vivo; conditions: samples immersed in 0.4% acetic acid solution for three hours
racomitrium moss [7] = test: Verification experiment 19: ammonia stress, Bryophyta, TTC test; format: in vivo; conditions: samples immersed in 1.0% ammonia solution for 48 hours
cucumber [8] = test: Verification experiment 10: ammonia stress, TTC test; format: in vivo; conditions: cut leaves immersed in 1.0% ammonia solution for three hours
cucumber [9] = test: Verification experiment 8: low temperature stress, TTC test; format: in vivo; conditions: for TTC test dyeing of leaves (cell activity): remaining plants cultivated two days under fluorescent lamp at 4° C.
cucumber [10] = test: Verification experiment 12: salt stress, TTC test; format: in vivo; conditions: cut leaves immersed in 1.0% saline water for 24 hours
autumn fern [11] = test: Verification experiment 14: high temperature stress, Pteridophyta, TTC test; format: in vivo; conditions: cut leaves immersed in tap water of 45° C. for 18 hours
Experimental: As a Pteridophyta, autumn fern was used, which is a representative Pteridophyta often found in, […] bright forest. Verification experiments for various stresses were conducted thereon. The experiments were conducted in the following procedures. […] Meanwhile, the leaf surfaces of the control sample were sprayed only with water. After the spraying onto the leaf surfaces, the autumn fern seedlings were cultivated at 25° C. for one day. The leaves were cut in a suitable size, and were then subjected to various stresses. Then, cell activities of the samples were determined by TTC test. The leaves that were cut in the suitable size were immersed in tap water of 45° C. for 18 hours. On such leaves, TTC test was conducted.

racomitrium moss [12] = test: Verification experiment 17: high temperature stress, Bryophyta, TTC test; format: in vivo; conditions: samples immersed in tap water of 45° C. for 18 hours
Experimental: As a Bryophyta, racomitrium moss was used, which is a Bryophyta widely used for greening a park, a rooftop, and a garden. Verification experiments for various stresses were conducted thereon. The experiments were conducted in the following procedures. […] Meanwhile, the control sample was sprayed only with water. After the spraying, the racomitrium mosses were cultivated at 25° C. for one day. Then, the samples were subjected to various stresses. Thus, cell activities of the samples were determined by TTC test. […] On such samples, TTC test was conducted.

cucumber [13] = test: Verification experiment 11: ultraviolet ray stress, TTC test; format: in vivo; conditions: cut leaves irradiated with ultraviolet ray for 24 hours
autumn fern [14] = test: Verification experiment 15: organic acid stress, Pteridophyta, TTC test; format: in vivo; conditions: cut leaves immersed in 0.4% acetic acid solution for three hours
autumn fern [15] = test: Verification experiment 16: ammonia stress, Pteridophyta, TTC test; format: in vivo; conditions: cut leaves immersed in 1.0% ammonia solution for 48 hours
[16] = cut leaves left two days in dark place at 0° C.
[17] = cut leaves left two days in dark place at −10° C.
[18] = leaf lettuce, summer greenhouse hydroponics

Structure (SMILES)	Weight of each seedling (cucumber [4])	Average (cucumber [4]) [g]	Weight comparison (%) (cucumber [4])	cells having an activity (TTC test) (cucumber [5])	effect as agent compared with zerumbone (Japanese mustard spinach [2])	TTC test dyeing (cell activity) (racomitrium moss [6])	TTC test dyeing (cell activity) (racomitrium moss [7])	cells having an activity (TTC test) (cucumber [8])	TTC test dyeing (cell activity) (cucumber [9]; [16])	TTC test dyeing (cell activity) (cucumber [9]; [17])	TTC test dyeing of leaves (cell activity) (cucumber [9])	cells alive (TTC test) (cucumber [10])	TTC test dyeing (cell activity) (autumn fern [11])	TTC test dyeing (cell activity) (racomitrium moss [12])	cells having an activity (TTC test) (cucumber [13])	TTC test dyeing (cell activity) (autumn fern [14])	TTC test dyeing (cell activity) (autumn fern [15])	other results
C[n+]1cc2c3c(ccc2c2ccc4cc5c(cc4c21)OCO5)OCO3 [Sanguinarine, sanguinarine, reference compound]																		growth better than the growth of the control samples (Japanese mustard spinach [1]; Table 3 experiment, almost no sunlight): approximately 17%; Growth ratio (%) (Japanese mustard spinach [1]; control = 100.0, second time-B): 116.7%; Weight of 10 samples (Japanese mustard spinach [1]; dry weight of 10 seedlings, nine days, 30-43 °C, almost no sunlight, second time-B): 1.802 g and 1.873 g; Average (Japanese mustard spinach [1]; second time-B): 1.838 g; Average (Japanese mustard spinach [2]; average weight of 10 samples, first time): 1.574 g; weights greater than those of the control samples (Japanese mustard spinach [2]; average weights compared, first time): approximately 3%; Growth ratio (%) (Japanese mustard spinach [2]; control = 100.0, first time): 103.2%; Weight of 10 samples (Japanese mustard spinach [2]; dry weight of 10 seedlings, leaf spray, nine days culture, maximum temperature 30-43 °C, plenty of sunlight, first time): 1.554 g and 1.538 g and 1.594 g and 1.610 g; weights greater than those of the control samples (Japanese mustard spinach [3]; Table 2 experiment): approximately 11%; Growth ratio (%) (Japanese mustard spinach [3]; control = 100.0, second time-A): 110.7%; Weight of 10 samples (Japanese mustard spinach [3]; dry weight of 10 seedlings, nine days, 30-43 °C, plenty of sunlight, second time-A): 1.996 g and 2.027 g and 2.156 g and 2.179 g; Average (Japanese mustard spinach [3]; second time-A): 2.090 g
C/C1=C\CC/C(C)=C/CC(C)(C)/C=C/C1 [α-humulene]	2.69 g and 2.99 g and 3.21 g and 3.07 g and 3.02 g and 2.76 g and 2.65 g and 3.03 g	2.90	108.5	approximately half of the cells	effects almost similar to that of zerumbone	dyed slightly	dyed slightly	a part of the cells	dyed deeply	dyed slightly	dyed deeply except for their peripheries	most of the cells	dyed slightly	dyed slightly	approximately half of the cells	dyed slightly	dyed slightly	Disease resistance: Powdery mildew (leaf lettuce; in vivo): Not occurred; Disease resistance: Root rot (leaf lettuce; in vivo): Not occurred; Physiological disorder (quality): Heterophyll (leaf lettuce; in vivo): Not occurred; Physiological disorder (quality): Root spread condition (leaf lettuce; in vivo): far better than in the sanguinarine test section; also recorded: Generally; Physiological disorder (quality): Taste (leaf lettuce; in vivo): No bitterness; Physiological disorder (quality): Tip burn (dead fringes of leaf) (leaf lettuce; in vivo): Not occurred; Physiological disorder (quality): Unproductive growth (leaf lettuce; in vivo): Not occurred; occurrence of a disease (overall) (leaf lettuce; in vivo): occurrence of a disease was not observed; physiological disorder (overall) (leaf lettuce; in vivo): no physiological disorder occurred
C=C1CC/C=C(\C)CC[C@@H]2[C@@H]1CC2(C)C [β-caryophyllene]	2.89 g and 3.15 g and 3.01 g and 3.13 g and 2.91 g and 3.53 g and 3.11 g and 3.02 g	3.10	108.8	approximately half of the cells	effects almost similar to that of zerumbone	dyed slightly	dyed slightly	a part of the cells	dyed deeply	dyed slightly	dyed deeply except for their peripheries	most of the cells	dyed slightly	dyed slightly	approximately half of the cells	dyed slightly	dyed slightly	Growing speed: Harvest timing (leaf lettuce; day on which harvest size reached 150 g to 180 g): 33rd day after day after germination; Disease resistance: Powdery mildew (leaf lettuce; [18]): Not occurred; Disease resistance: Root rot (leaf lettuce; [18]): Not occurred; Physiological disorder (quality): Heterophyll (leaf lettuce; [18]): Not occurred; Physiological disorder (quality): Root spread condition (leaf lettuce; [18]): far better than in the sanguinarine test section; also recorded: Very good; Physiological disorder (quality): Taste (leaf lettuce; [18]): No bitterness; Physiological disorder (quality): Tip burn (dead fringes of leaf) (leaf lettuce; [18]): Not occurred; Physiological disorder (quality): Unproductive growth (leaf lettuce; [18]): Not occurred; occurrence of a disease (overall) (leaf lettuce; [18]): occurrence of a disease was not observed; physiological disorder (overall) (leaf lettuce; [18]): no physiological disorder occurred
